Assay [1] is described as follows: (§1) Fluorometric PAI-1/uPA IC50 Plate Assay (1.5% BSA buffer): To determine the efficacy of various synthesized compounds as PAI-1 inhibitors, a fluorometric plate assay was carried out to measure the half maximal inhibitory concentration (IC50) of these compounds on recombinant active human PAI-1 in vitro. An IC50 is a measure of the effectiveness of a compound in inhibiting biological or biochemical function. Stated another way, IC50 represents the concentration of a drug that is required for 50% inhibition in vitro. The IC50 of various compounds was measured using a fluorometric plate assay. PAI-1 inhibitor compounds were dissolved in DMSO to a final concentration of (10-50 mM), depending upon solubility. Compounds were then diluted in physiologic buffer (40 mM HEPES, 100 mM NaCl, 0.05% Tween-20, pH7.4) containing 10% DMSO and a dilution series (from 0 to 1000 uM depending on solubility) was prepared. 80 μL of compound was added per well to a 96-well black, opaque microplate in duplicate. 10 μL of 20 nM Recombinant active human PAI-1 (Molecular Innovations) in physiologic buffer (40 mM HEPES, 100 mM NaCl, 0.05% Tween-20, 10% DMSO, pH 7.4), or […] physiologic buffer with 10% human plasma, was added and the mixture was agitated for 15 minutes at room temperature. […].

Assay [2] can be described thus: as §1, with “(10% plasma” for “(1.5% BSA”.
Assay [3] in a line: Fluorometric PAI-1/uPA IC50 Plate Assay: To determine the efficacy of various synthesized compounds as PAI-1 inhibitors, a fluorometric plate assay was carried out to measure the half maximal inhibitory concentration (IC50) of these compounds on recombinant active human PAI-1 in vitro. An IC50 is a measure of the effectiveness of a compound in inhibiting biological or biochemical function. Stated another way, IC50 represents the concentration of a drug that is required for 50% inhibition in vitro. The IC50 of various compounds was measured using a fluorometric plate assay. PAI-1 inhibitor compounds were dissolved in DMSO to a final concentration of (10-50 mM), depending upon solubility. Compounds were then diluted in physiologic buffer (40 mM HEPES, 100 mM NaCl, 0.05% Tween-20, pH7.4) containing 10% DMSO and a dilution series (from 0 to 1000 uM depending on solubility) was prepared. 80 μL of compound was added per well to a 96-well black, opaque microplate in duplicate. 10 μL of 20 nM Recombinant active human PAI-1 (Molecular Innovations) in physiologic buffer (40 mM HEPES, 100 mM NaCl, 0.05% Tween-20, 10% DMSO, pH 7.4), or […] physiologic buffer with 10% human plasma, was added and the mixture was agitated for 15 minutes at room temperature. 10 μL of 25 nM uPA (Rheotromb®) was added to each reaction well and the plate was agitated for an additional 30 minutes at room temperature. Tripeptide aminomethylcoumarin Gly-Gly-Arg-AMC (Calbiochem) fluorogenic substrate (100 μL of 100 μM) was then added and residual uPA activity was determined based upon cleavage of this substrate. The rate of AMC release by uPA (fluorescence) was measured at an excitation wavelength of 370 nm and an emission wavelength of 440 nm. Controls included PAI-1 and uPA in the absence of compound and uPA alone. Percent PAI-1 inhibition was calculated using the following formula: [(uPA alone-uPA/PAI-1+ compound)/(uPA alone-PAI-1/uPA)]*100%. The IC50 was calculated using Graphit (IC50 0-100%).

The IC50 is the point on the concentration scale where inhibition reaches its midpoint. Take `[C-]#[N+]c1ccc(CNC(=O)C(=O)NN)cc1`: the IC50 in assay [1] was 892 µM; in assay [2] it was 851 µM; in assay [3], 5470 µM. On to `NNC(=O)C(=O)NCCc1ccc(CO)c(CO)c1`, for which the IC50 in assay [3] is 2560 µM. The same measure, in the same setting: the result for `COc1cc(CO)ccc1CNC(=O)C(=O)NN` reads 2280 µM. Same read-out and setting: the result for `COc1cc(CO)cc(CNC(=O)C(=O)NN)c1` reads 4320 µM.

These data come from ChEMBL document CHEMBL5725542, “Plasminogen activator inhibitor-1 inhibitors and methods of use thereof” (2017).
